This experiment has as its system GEMIN1. The experiment is described as follows: AP-MS chemical proteomics, GEMIN1. It is filed as binding, human. The settings on record: biotin-Cmpd 1 pulldown, competition with 200 μM compound 1 relative to DMSO, U2OS lysate. As for the experimental part: The samples for AP-MS were prepared following pulldown procedure as previously described with minor modifications. Briefly, U2OS cells were lysed in RIPA buffer and the cell lysate was equally divided into two groups: (1) DMSO group (control group): the cell lysate was incubated with 20 μM biotin-labeled compound 1; (2) Cpmd 1 group (sample group): the cell lysate was incubated with 20 μM biotin-labeled compound 1 and 200 μM free compound 1. Each group contains three biological replicates. They were incubated overnight at 4 °C, then 30 μL streptavidin beads (Thermo Fisher, 20353) was added and incubated at 4 °C for 1 h. The beads were then washed with RIPA buffer for 3 times, 10 min/time. […]
Samples were analyzed by nanoLC-MS/MS (nanoRSLC, Thermo Fisher) using an Aurora series (Ion Opticks) reversed phase HPLC column (25 cm length × 75 µm inner diameter) and directly injected to an Orbitrap Eclipse (Thermo Fisher) using a 120 min gradient (mobile phase A = 0.1% formic acid, mobile phase B = 99.9% acetonitrile with 0.1% formic acid; hold 2% B for 5 min, 2–6% B in 0.1 min, 6–25% in 100 min, 25–50% in 15 min) at a flow rate of 350 nL/min. Eluted peptide ions were analyzed using a data-dependent acquisition (DDA) method with resolution settings of 120,000 and 15,000 (at m/z 200) for MS1 and MS2 scans, respectively. […]

For `Cn1c2c(c(=N)c3c1CCC3)CCC2` [Compound 1, 4-methyl-2,3,4,5,6,7-hexahydrodicyclopenta[b,e]pyridin-8(1H)-imine], the “log2 FC (Cmpd 1/DMSO), GEMIN1” value is recorded as −6.9.

For the origin of these results see publication PMC9481570, “A small molecule antagonist of SMN disrupts the interaction between SMN and RNAP II” (Nature Communications, 2022).
